# Data as given in patent US5801254A, “Arteminolide derivatives and process for the manufacture thereof” (Korea Institute of Science and Technology, priority 1996, dated 1998).
# Read-outs that look alike come from different tables or passages of the source.
# Experiments:
# [1] = target: T1, farnesyl-protein transferase (FPTase) (Rattus norvegicus, UniProt Q02293+Q04631); test: Farnesyl-protein transferase inhibiting activity, scintillation proximity assay with 3H-FPP and biotin-lamin B peptide; assay type: biochemical; conditions: read-out: IC50 values for FPTase Inhibition
# T1 construct: a cerebrum obtained from white rat; from tissue; host or cells: rat cerebrum (male Sprague-Dawley, 100-150 g), homogenate, partially purified on Q Sepharose Fast Flow
# Description: First, a cerebrum obtained from white rat(male Spraguo Dowley 100-150 g) was washed with physiological saline solution and homogenized. The homogenized solution was centrifuged and partially purified by using Q sepharose fast flow column to obtain farnesyl protein transferase(FPTase).
# 10 μl of a sample, 40 μl of FPTase obtained above, 10 μl of an assay buffer(50 mM Tris-HCl, pH 7.5, 25 mM MgCl2, 2 mM KCl, 5 mM DTT, 5 mM Na2 HPO4, 0.01% Triton X-100), 20 μl of diluted ^3 H-FPP and 20 μl of biotin-lamin B peptide were mixed together and the resulting mixture was reacted at room temperature for 30 minutes. 150 μl of SPA bead/stop reagent solution was added to the mixture and the enzymatic activity was determined by examining the extent of biotin lamin B peptide farneslyation, expressed by a unit of count per minute(CPM), with a liquid scintillation counter.
# Solubility = assay type: physicochemical
# [2] = tested on: angiogenesis, chorioallantoic membrane (CAM); test: Angiogenesis suppressing activity, chorioallantoic membrane (CAM) assay; assay type: in vivo; conditions: fertilized chicken egg, read-out: IC50 values for Angiogenesis Suppression
# Description: Angiogenesis was determined in accordance with the chorioallantoic membrane(CAM) assay method of Kusaka et al. described in Biochem. Biophy. Res. Comm., 174, 1070(1991) by using a fertilized chicken egg.
# A fertilized chicken egg(Pulmuwon co., Korea) was incubated at 37°-38° C. and a humidity of more than 90%. Here, 0 day-embryo means that the fertilized egg had been storaged at 18° C. for no more than 3-4 days since laying.
# The pointed end of the fertilized egg was scratched with a knife, laid horizontally, the scratched site was punctured with a 5 ml syringe and 2 ml of albumin was extracted from the fertilized egg. The puncture hole was then sealed with a glass-tape. The fertilized egg, laid such that the sealed hole is located at the bottom, was incubated under the same condition described above.
# The other end of the fertilized egg where the air sac is located, i.e., the end opposite to the hole site was opened, a window having a diameter of 2-3 cm was installed therein, the window was sealed with a glass-tape, and the incubation was resumed.
# At this time, a chorioalletoic membrane(CAM) of 2-5 mm diameter develop. A arteminolide sample was dissolved in distilled water or ethanol, 10 μl of the sample solution was dropped on quartered Thermanox coverslip(Nunc, Co.,) and dried in a clean bench. The sealing glass-tape was removed, the treated Thermanox coverslip obtained above was laid on the CAM and then sealed with a glass-tape. All tools used in the above procedure were pre-sterilized with 70% ethanol.
# The sealing glass-tape was removed. 1 ml of Intralipose(fat emulsion, Green Cross co., Korea) was taken with syringe, removed an air bobble therefrom and injected into an area below the CAM.
# Angiogenesis suppressing activity was then calculated in accordance with the following equation: [formula]
# [3] = MeOH, acetone, chloroform, DMSO
IC50 ([1]; listed as E) [µM],"Solubility (Solubility; hexane, H2O)",IC50 ([1]; listed as C) [µM],Solubility (Solubility; [3]),IC50 [1] [µM],SMILES,IC50 ([2]; listed as E) [µM],IC50 ([2]; listed as C) [µM],IC50 ([2]; Gallus gallus) [µM],IC50 ([2]; listed as F) [µM],IC50 ([2]; listed as A) [µM]
,insoluble,0.74,soluble,,C=C1C(=O)OC2C1CCC(C)(O)C13C=CC(C)(C21)C1(C3)C(=O)OC2C3C(C)=CC(=O)C3=C(C)CC(OC(=O)/C(C)=C\C)C21 (stereo not drawn) [Arteminolide C],,0.5,,,
,insoluble,,soluble,0.63,C=C1C(=O)OC2C1CCC(C)(O)C13C=CC(C)(C21)C1(C3)C(=O)OC2C3C(C)=CC(=O)C3=C(C)CC(OC(=O)/C(C)=C/C)C21 (stereo not drawn) [Arteminolide D],,,6.2,,

# Continued, molecule first:
SMILES,IC50 ([1]; listed as E) [µM],"Solubility (Solubility; hexane, H2O)",IC50 ([1]; listed as C) [µM],Solubility (Solubility; [3]),IC50 [1] [µM],IC50 ([2]; listed as E) [µM],IC50 ([2]; listed as C) [µM],IC50 ([2]; Gallus gallus) [µM],IC50 ([2]; listed as F) [µM],IC50 ([2]; listed as A) [µM]
C=C1C(=O)OC2C1CCC(C)(O)C13C=CC(C)(C21)C1(C3)C(=O)OC2C3C(C)=CC(=O)C3=C(C)CC(OC(=O)/C(C)=C\C)C21 (stereo not drawn) [Arteminolide E],150,insoluble,,,,20,,,,
C=C1C(=O)OC2C1CCC(C)(O)C13C=CC(C)(C21)C1(C3)C(=O)OC2C3C(C)=CC(=O)C3=C(C)CC(OC(=O)C=C(C)C)C21 (stereo not drawn) [Arteminolide B],,insoluble,,soluble,0.4,,,5.2,,
C=C1C(=O)OC2C1CCC(C)(O)C13C=CC(C)(C21)C1(C3)C(=O)OC2C3C(C)=CC(=O)C3=C(C)CC(OC(=O)CC(C)C)C21 (stereo not drawn) [Arteminolide F],,insoluble,,soluble,160,,,,24,
C=C1C(=O)OC2C1CCC(C)(O)C13C=CC(C)(C21)C1(C3)C(=O)OC2C3C(C)=CC(=O)C3=C(C)CC(OC(=O)CC(C)C)C21 (stereo not drawn) [Arteminolide A],,,,,0.38,,,,,5.4
